Test results from the supplement of paper PMC10627819.

Experiments:
Assay in all cases: Bliss interaction score (quartile over a dose matrix) (fitness difference); higher = more antagonism (negative = synergy)
[1] = system: B. subtilis 168
Outline: (§1)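 Each plate was normalised to the robust mean of its own no-drug wells, using OD595 at entry into stationary phase, with values capped at 1. This normalised growth is the fitness value. The Bliss score is the difference between observed and product-expected fitness, with single-drug fitness inferred from the combination data and quartiles taken over technical, biological and donor/recipient replicates.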

[2] = system: S. aureus DSM 20231
Outline: as §1

[3] = system: S. aureus Newman
Outline: as §1

[4] = system: S. pneumoniae D39V
Outline: as §1
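Further: first quartile when negative (synergy) and third quartile when positive (antagonism).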

CN[C@H](CC(C)C)C(=O)N[C@H]1C(=O)N[C@@H](CC(N)=O)C(=O)N[C@H]2C(=O)N[C@H]3C(=O)N[C@H](C(=O)N[C@H](C(=O)O)c4cc(O)cc(O)c4-c4cc3ccc4O)[C@H](O[C@H]3C[C@](C)(N)[C@@H](O)[C@H](C)O3)c3ccc(c(Cl)c3)Oc3cc2cc(c3O[C@@H]2O[C@H](CO)[C@@H](O)[C@H](O)[C@H]2O[C@H]2C[C@](C)(NCc3ccc(-c4ccc(Cl)cc4)cc3)[C@@H](O)[C@H](C)O2)Oc2ccc(cc2Cl)[C@H]1O [Oritavancin] + CN(C)c1cc(NC(=O)CNC(C)(C)C)c(O)c2c1C[C@H]1C[C@H]3[C@H](N(C)C)C(O)=C(C(N)=O)C(=O)[C@@]3(O)C(O)=C1C2=O [Tigecycline]
Bliss interaction score [1]: -0.0328 | Bliss interaction score [2]: -0.0305 | Bliss interaction score [3]: -0.0634 | Bliss interaction score [4]: 0.0458

CO[C@@]12[C@H](COC(N)=O)C3=C(C(=O)C(C)=C(N)C3=O)N1C[C@@H]1N[C@@H]12 [MitomycinC] + CO[C@@H]1[C@@H](OC(N)=O)[C@@H](O)[C@H](Oc2ccc3c(O)c(NC(=O)c4ccc(O)c(CC=C(C)C)c4)c(=O)oc3c2C)OC1(C)C [Novobiocin]
Bliss interaction score [1]: -0.117 | Bliss interaction score [2]: -0.0588 | Bliss interaction score [3]: -0.137 | Bliss interaction score [4]: -0.11

CC[C@H]1OC(=O)[C@H](C)[C@@H](O[C@H]2C[C@@](C)(OC)[C@@H](O)[C@H](C)O2)[C@H](C)[C@@H](O[C@@H]2O[C@H](C)C[C@H](N(C)C)[C@H]2O)[C@](C)(O)C[C@@H](C)C(=O)[C@H](C)[C@@H](O)[C@]1(C)O [Erythromycin] + CC(=O)NC[C@H]1CN(c2ccc(N3CCOCC3)c(F)c2)C(=O)O1 [Linezolid]
Bliss interaction score [1]: -0.0534 | Bliss interaction score [2]: -0.018 | Bliss interaction score [3]: -0.0521 | Bliss interaction score [4]: 0.068

CC[C@H]1OC(=O)[C@H](C)[C@@H](O[C@H]2C[C@@](C)(OC)[C@@H](O)[C@H](C)O2)[C@H](C)[C@@H](O[C@@H]2O[C@H](C)C[C@H](N(C)C)[C@H]2O)[C@](C)(O)C[C@@H](C)C(=O)[C@H](C)[C@@H](O)[C@]1(C)O [Erythromycin] + Clc1ccc(COC(Cn2ccnc2)c2ccc(Cl)cc2Cl)c(Cl)c1 [Miconazole]
Bliss interaction score [1]: -0.0519 | Bliss interaction score [2]: 0.0299 | Bliss interaction score [3]: 0.0457 | Bliss interaction score [4]: 0.114

CO[C@@]12[C@H](COC(N)=O)C3=C(C(=O)C(C)=C(N)C3=O)N1C[C@@H]1N[C@@H]12 [MitomycinC] + CC[C@H]1OC(=O)[C@H](C)C(=O)[C@H](C)[C@@H](O[C@@H]2O[C@H](C)C[C@H](N(C)C)[C@H]2O)[C@](C)(OC)C[C@@H](C)C(=O)[C@H](C)[C@H]2N(CCCCn3cnc(-c4cccnc4)c3)C(=O)O[C@]12C [Telithromycin]
Bliss interaction score [1]: 0.0694 | Bliss interaction score [2]: -0.0567 | Bliss interaction score [3]: -0.0269 | Bliss interaction score [4]: -0.102

CC[C@H]1OC(=O)[C@H](C)[C@@H](O[C@H]2C[C@@](C)(OC)[C@@H](O)[C@H](C)O2)[C@H](C)[C@@H](O[C@@H]2O[C@H](C)C[C@H](N(C)C)[C@H]2O)[C@](C)(O)C[C@@H](C)C(=O)[C@H](C)[C@@H](O)[C@]1(C)O [Erythromycin] + CC1=C\[C@@H](O)CC(=O)Cc2nc(co2)C(=O)N2CCC=C2C(=O)O[C@H](C(C)C)[C@H](C)/C=C/C(=O)NC\C=C\1 [Virginiamycin M1]
Bliss interaction score [1]: -0.0578 | Bliss interaction score [2]: 0.0769 | Bliss interaction score [3]: 0.066 | Bliss interaction score [4]: 0.0687

CN[C@H](CC(C)C)C(=O)N[C@H]1C(=O)N[C@@H](CC(N)=O)C(=O)N[C@H]2C(=O)N[C@H]3C(=O)N[C@H](C(=O)N[C@H](C(=O)O)c4cc(O)cc(O)c4-c4cc3ccc4O)[C@H](O[C@H]3C[C@](C)(N)[C@@H](O)[C@H](C)O3)c3ccc(c(Cl)c3)Oc3cc2cc(c3O[C@@H]2O[C@H](CO)[C@@H](O)[C@H](O)[C@H]2O[C@H]2C[C@](C)(NCc3ccc(-c4ccc(Cl)cc4)cc3)[C@@H](O)[C@H](C)O2)Oc2ccc(cc2Cl)[C@H]1O [Oritavancin] + CN[C@@H]1[C@H](O)[C@H](NC)[C@H]2O[C@@]3(O)C(=O)C[C@@H](C)O[C@H]3O[C@@H]2[C@H]1O [Spectinomycin]
Bliss interaction score [1]: -0.0238 | Bliss interaction score [2]: -0.0487 | Bliss interaction score [3]: -0.154 | Bliss interaction score [4]: 0.0219

CC[C@H]1OC(=O)[C@H](C)[C@@H](O[C@H]2C[C@@](C)(OC)[C@@H](O)[C@H](C)O2)[C@H](C)[C@@H](O[C@@H]2O[C@H](C)C[C@H](N(C)C)[C@H]2O)[C@](C)(O)C[C@@H](C)C(=O)[C@H](C)[C@@H](O)[C@]1(C)O [Erythromycin] + CCC[C@@H]1C[C@@H](C(=O)N[C@@H]([C@H]2O[C@H](SC)[C@H](O)[C@@H](O)[C@H]2O)[C@@H](C)O)N(C)C1 [Lincomycin]
Bliss interaction score [1]: 0.107 | Bliss interaction score [2]: -0.0609 | Bliss interaction score [3]: -0.1 | Bliss interaction score [4]: 0.0856

CO[C@@]12[C@H](COC(N)=O)C3=C(C(=O)C(C)=C(N)C3=O)N1C[C@@H]1N[C@@H]12 [MitomycinC] + C/C(=C\C(=O)OCCCCCCCCC(=O)O)C[C@@H]1OC[C@H](C[C@@H]2O[C@H]2[C@@H](C)[C@H](C)O)[C@@H](O)[C@H]1O [Pseudomonic acid]
Bliss interaction score [1]: -0.0185 | Bliss interaction score [2]: -0.011 | Bliss interaction score [3]: -0.0169 | Bliss interaction score [4]: -0.0895

CO[C@@]12[C@H](COC(N)=O)C3=C(C(=O)C(C)=C(N)C3=O)N1C[C@@H]1N[C@@H]12 [MitomycinC] + COc1ccc(C[C@H](N)C(=O)N[C@H]2[C@@H](O)[C@H](n3cnc4c(N(C)C)ncnc43)O[C@@H]2CO)cc1 [Puromycin]
Bliss interaction score [1]: -0.0693 | Bliss interaction score [2]: 0.0528 | Bliss interaction score [3]: 0.0521 | Bliss interaction score [4]: 0.0762

CC[C@H](C)[C@H](N)C1=N[C@H](C(=O)N[C@@H](CC(C)C)C(=O)N[C@H](CCC(=O)O)C(=O)N[C@H](C(=O)N[C@H]2CCCCNC(=O)[C@H](CC(N)=O)NC(=O)[C@@H](CC(=O)O)NC(=O)[C@H](Cc3cnc[nH]3)NC(=O)[C@@H](Cc3ccccc3)NC(=O)[C@H]([C@@H](C)CC)NC(=O)[C@@H](CCCN)NC2=O)[C@@H](C)CC)CS1 [Bacitracin] + CC[C@H]1OC(=O)[C@H](C)C(=O)[C@H](C)[C@@H](O[C@@H]2O[C@H](C)C[C@H](N(C)C)[C@H]2O)[C@](C)(OC)C[C@@H](C)C(=O)[C@H](C)[C@H]2N(CCCCn3cnc(-c4cccnc4)c3)C(=O)O[C@]12C [Telithromycin]
Bliss interaction score ([1]; main component drawn): -0.0381 | Bliss interaction score ([2]; main component drawn): -0.0302 | Bliss interaction score ([3]; main component drawn): -0.047 | Bliss interaction score ([4]; main component drawn): 0.0263

CN[C@H](CC(C)C)C(=O)N[C@H]1C(=O)N[C@@H](CC(N)=O)C(=O)N[C@H]2C(=O)N[C@H]3C(=O)N[C@H](C(=O)N[C@H](C(=O)O)c4cc(O)cc(O)c4-c4cc3ccc4O)[C@H](O[C@H]3C[C@](C)(N)[C@@H](O)[C@H](C)O3)c3ccc(c(Cl)c3)Oc3cc2cc(c3O[C@@H]2O[C@H](CO)[C@@H](O)[C@H](O)[C@H]2O[C@H]2C[C@](C)(NCc3ccc(-c4ccc(Cl)cc4)cc3)[C@@H](O)[C@H](C)O2)Oc2ccc(cc2Cl)[C@H]1O [Oritavancin] + CN[C@H](CC(C)C)C(=O)N[C@H]1C(=O)N[C@@H](CC(N)=O)C(=O)N[C@H]2C(=O)N[C@H]3C(=O)N[C@H](C(=O)N[C@H](C(=O)O)c4cc(O)cc(O)c4-c4cc3ccc4O)[C@H](O)c3ccc(c(Cl)c3)Oc3cc2cc(c3O[C@@H]2O[C@H](CO)[C@@H](O)[C@H](O)[C@H]2O[C@H]2C[C@](C)(N)[C@H](O)[C@H](C)O2)Oc2ccc(cc2Cl)[C@H]1O [Vancomycin]
Bliss interaction score [1]: 0.0254 | Bliss interaction score [2]: -0.0879 | Bliss interaction score [3]: -0.0787 | Bliss interaction score [4]: 0.105

CC[C@H]1OC(=O)[C@H](C)[C@@H](O[C@H]2C[C@@](C)(OC)[C@@H](O)[C@H](C)O2)[C@H](C)[C@@H](O[C@@H]2O[C@H](C)C[C@H](N(C)C)[C@H]2O)[C@](C)(O)C[C@@H](C)C(=O)[C@H](C)[C@@H](O)[C@]1(C)O [Erythromycin] + O=C1CN(/N=C/c2ccc([N+](=O)[O-])o2)C(=O)N1 [Nitrofurantoin]
Bliss interaction score [1]: -0.0393 | Bliss interaction score [2]: -0.0518 | Bliss interaction score [3]: -0.0513 | Bliss interaction score [4]: -0.197

CC[C@H](C)[C@H](N)C1=N[C@H](C(=O)N[C@@H](CC(C)C)C(=O)N[C@H](CCC(=O)O)C(=O)N[C@H](C(=O)N[C@H]2CCCCNC(=O)[C@H](CC(N)=O)NC(=O)[C@@H](CC(=O)O)NC(=O)[C@H](Cc3cnc[nH]3)NC(=O)[C@@H](Cc3ccccc3)NC(=O)[C@H]([C@@H](C)CC)NC(=O)[C@@H](CCCN)NC2=O)[C@@H](C)CC)CS1 [Bacitracin] + Clc1ccc(COC(Cn2ccnc2)c2ccc(Cl)cc2Cl)c(Cl)c1 [Miconazole]
Bliss interaction score ([1]; main component drawn): -0.0878 | Bliss interaction score ([2]; main component drawn): -0.0238 | Bliss interaction score ([3]; main component drawn): -0.0691 | Bliss interaction score ([4]; main component drawn): 0.113

CN[C@@H]1[C@H](O)[C@H](NC)[C@H]2O[C@@]3(O)C(=O)C[C@@H](C)O[C@H]3O[C@@H]2[C@H]1O [Spectinomycin] + CC[C@H]1OC(=O)[C@H](C)C(=O)[C@H](C)[C@@H](O[C@@H]2O[C@H](C)C[C@H](N(C)C)[C@H]2O)[C@](C)(OC)C[C@@H](C)C(=O)[C@H](C)[C@H]2N(CCCCn3cnc(-c4cccnc4)c3)C(=O)O[C@]12C [Telithromycin]
Bliss interaction score [1]: 0.038 | Bliss interaction score [2]: -0.0419 | Bliss interaction score [3]: -0.0947 | Bliss interaction score [4]: -0.14
